Results published in PubChem BioAssay AID248 (DTP/NCI, 2004).
Where “and” joins values, the source holds several entries; their conditions need not be identical. Equal entries are not always repeated. Toxic doses and inconclusive results are not listed. No stated cut-off is given here; in the data, active means T/C of 150% or more; inactive means T/C below 125%.

System: L1210 leukemia ip in BDF1 mice, survival T/C
Test: NCI In Vivo Anticancer Drug Screen. Data for tumor model L1210 Leukemia (intraperitoneal) in B6D2F1 (BDF1) mice
Conditions: higher = longer survival
How it was run: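 Antitumor effect is assessed in tumor-bearing animals. Survival in the compound arm is compared with a vehicle-dosed control arm and expressed as their quotient.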

[1] = endpoint: mean survival time, dose: 200.0 mg/kg/injection, schedule: Q01DX001 (ip), vehicle: saline
[2] = endpoint: mean survival time, dose: 100.0 mg/kg/injection, schedule: Q01DX009 (ip), vehicle: saline with Tween-80
[3] = endpoint: mean survival time, dose: 200.0 mg/kg/injection, schedule: Q01DX009 (ip), vehicle: saline with Tween-80
[4] = endpoint: mean survival time, dose: 100.0 mg/kg/injection, schedule: Q01DX001 (ip), vehicle: saline
[5] = endpoint: mean survival time, dose: 400.0 mg/kg/injection, schedule: Q01DX001 (ip), vehicle: saline

Measured: T/C

CSc1nccc(NN=C2CCCCC2)n1
inactive: endpoint: mean survival time, dose: 100.0 mg/kg/injection, schedule: Q01DX001 (ip), vehicle: Klucel (hydroxypropylcellulose) (HPC) 98 % of control | endpoint: mean survival time, dose: 100.0 mg/kg/injection, schedule: Q01DX009 (ip), vehicle: Klucel (hydroxypropylcellulose) (HPC) 96 % of control | endpoint: mean survival time, dose: 200.0 mg/kg/injection, schedule: Q01DX001 (ip), vehicle: Klucel (hydroxypropylcellulose) (HPC) 94 % of control | endpoint: mean survival time, dose: 200.0 mg/kg/injection, schedule: Q01DX009 (ip), vehicle: Klucel (hydroxypropylcellulose) (HPC) 98 % of control | endpoint: mean survival time, dose: 400.0 mg/kg/injection, schedule: Q01DX001 (ip), vehicle: Klucel (hydroxypropylcellulose) (HPC) 91 % of control

CC(=O)C=O
inactive: endpoint: mean survival time, dose: 12.5 mg/kg/injection, schedule: Q01DX009 (ip), vehicle: saline 98 % of control | endpoint: mean survival time, dose: 20.5 mg/kg/injection, schedule: Q01DX006 (ip), vehicle: saline 100 % of control | endpoint: mean survival time, dose: 20.5 mg/kg/injection, schedule: Q ##X009 (ip), vehicle: saline 102 % of control | endpoint: mean survival time, dose: 20.5 mg/kg/injection, schedule: Q## X Z (ip), vehicle: saline 101 % of control | endpoint: mean survival time, dose: 25.0 mg/kg/injection, schedule: Q01DX009 (ip), vehicle: saline 88 % of control | endpoint: mean survival time, dose: 29.5 mg/kg/injection, schedule: Q01DX006 (ip), vehicle: saline 105 % of control | endpoint: mean survival time, dose: 29.5 mg/kg/injection, schedule: Q ##X009 (ip), vehicle: saline 98 % of control | endpoint: mean survival time, dose: 29.5 mg/kg/injection, schedule: Q## X Z (ip), vehicle: saline 97 % of control | endpoint: mean survival time, dose: 41.0 mg/kg/injection, schedule: Q03DX002 (ip), vehicle: saline 107 % of control | endpoint: mean survival time, dose: 42.0 mg/kg/injection, schedule: Q01DX006 (ip), vehicle: saline 96 % of control | endpoint: mean survival time, dose: 42.0 mg/kg/injection, schedule: Q ##X009 (ip), vehicle: saline 110 % of control | endpoint: mean survival time, dose: 42.0 mg/kg/injection, schedule: Q## X Z (ip), vehicle: saline 110 % of control | endpoint: mean survival time, dose: 50.0 mg/kg/injection, schedule: Q01DX009 (ip), vehicle: saline 93 % of control | endpoint: mean survival time, dose: 50.0 mg/kg/injection, schedule: Q01DX009 (ip), vehicle: water 110 % of control | endpoint: mean survival time, dose: 60.0 mg/kg/injection, schedule: Q01DX006 (ip), vehicle: saline 106 % of control and 107 % of control | endpoint: mean survival time, dose: 60.0 mg/kg/injection, schedule: Q ##X009 (ip), vehicle: saline 91 % of control | endpoint: mean survival time, dose: 60.0 mg/kg/injection, schedule: Q## X Z (ip), vehicle: saline 91 % of control | endpoint: mean survival time, dose: 71.0 mg/kg/injection, schedule: Q03DX002 (ip), vehicle: saline 118 % of control | endpoint: mean survival time, dose: 75.0 mg/kg/injection, schedule: Q01DX009 (ip), vehicle: water 113 % of control | endpoint: mean survival time, dose: 93.0 mg/kg/injection, schedule: Q01DX001 (ip), vehicle: saline 113 % of control | endpoint: mean survival time, dose: 100.0 mg/kg/injection, schedule: Q01DX009 (ip), vehicle: saline 97 % of control | endpoint: mean survival time, dose: 100.0 mg/kg/injection, schedule: Q01DX009 (ip), vehicle: water 110 % of control | endpoint: mean survival time, dose: 107.0 mg/kg/injection, schedule: Q03DX002 (ip), vehicle: saline 116 % of control | endpoint: mean survival time, dose: 127.0 mg/kg/injection, schedule: Q01DX001 (ip), vehicle: saline 123 % of control | endpoint: mean survival time, dose: 150.0 mg/kg/injection, schedule: Q01DX009 (ip), vehicle: water 103 % of control | endpoint: mean survival time, dose: 160.0 mg/kg/injection, schedule: Q03DX002 (ip), vehicle: saline 111 % of control | [1] 97 % of control | endpoint: mean survival time, dose: 200.0 mg/kg/injection, schedule: Q01DX009 (ip), vehicle: saline 104 % of control | endpoint: mean survival time, dose: 200.0 mg/kg/injection, schedule: Q01DX009 (ip), vehicle: water 91 % of control | endpoint: mean survival time, dose: 400.0 mg/kg/injection, schedule: Q01DX009 (ip), vehicle: saline 111 % of control | endpoint: median survival time, dose: 35.0 mg/kg/injection, schedule: Q01DX005 (ip), vehicle: other 104 % of control | endpoint: median survival time, dose: 35.0 mg/kg/injection, schedule: Q01DX005 (ip), vehicle: saline sonified 105 % of control | endpoint: median survival time, dose: 44.0 mg/kg/injection, schedule: Q01DX005 (ip), vehicle: other 104 % of control | endpoint: median survival time, dose: 44.0 mg/kg/injection, schedule: Q01DX005 (ip), vehicle: saline sonified 105 % of control | endpoint: median survival time, dose: 55.0 mg/kg/injection, schedule: Q01DX005 (ip), vehicle: other 106 % of control | endpoint: median survival time, dose: 55.0 mg/kg/injection, schedule: Q01DX005 (ip), vehicle: saline sonified 111 % of control | endpoint: median survival time, dose: 69.0 mg/kg/injection, schedule: Q01DX005 (ip), vehicle: other 107 % of control | endpoint: median survival time, dose: 69.0 mg/kg/injection, schedule: Q01DX005 (ip), vehicle: saline sonified 111 % of control | endpoint: median survival time, dose: 86.0 mg/kg/injection, schedule: Q01DX005 (ip), vehicle: other 110 % of control | endpoint: median survival time, dose: 86.0 mg/kg/injection, schedule: Q01DX005 (ip), vehicle: saline sonified 111 % of control | endpoint: median survival time, dose: 175.0 mg/kg/injection, schedule: Q01DX001 (ip), vehicle: other 101 % of control | endpoint: median survival time, dose: 175.0 mg/kg/injection, schedule: Q01DX001 (ip), vehicle: saline sonified 100 % of control | endpoint: median survival time, dose: 194.0 mg/kg/injection, schedule: Q01DX001 (ip), vehicle: other 101 % of control | endpoint: median survival time, dose: 194.0 mg/kg/injection, schedule: Q01DX001 (ip), vehicle: saline sonified 100 % of control | endpoint: median survival time, dose: 216.0 mg/kg/injection, schedule: Q01DX001 (ip), vehicle: other 98 % of control | endpoint: median survival time, dose: 216.0 mg/kg/injection, schedule: Q01DX001 (ip), vehicle: saline sonified 100 % of control | endpoint: median survival time, dose: 240.0 mg/kg/injection, schedule: Q01DX001 (ip), vehicle: other 118 % of control | endpoint: median survival time, dose: 240.0 mg/kg/injection, schedule: Q01DX001 (ip), vehicle: saline sonified 116 % of control | endpoint: median survival time, dose: 268.0 mg/kg/injection, schedule: Q01DX001 (ip), vehicle: other 107 % of control | endpoint: median survival time, dose: 268.0 mg/kg/injection, schedule: Q01DX001 (ip), vehicle: saline sonified 105 % of control | endpoint: median survival time, dose: 298.0 mg/kg/injection, schedule: Q01DX001 (ip), vehicle: other 116 % of control | endpoint: median survival time, dose: 298.0 mg/kg/injection, schedule: Q01DX001 (ip), vehicle: saline sonified 116 % of control

O=C1C(N2CCOCC2)=Cc2cccc3cccc1c23
inactive: endpoint: mean survival time, dose: 50.0 mg/kg/injection, schedule: Q01DX009 (ip), vehicle: saline with Tween-80 103 % of control | [2] 97 % of control | endpoint: mean survival time, dose: 100.0 mg/kg/injection, schedule: Q04DX003 (ip), vehicle: saline with Tween-80 92 % of control | [3] 97 % of control and 90 % of control | endpoint: mean survival time, dose: 200.0 mg/kg/injection, schedule: Q04DX003 (ip), vehicle: saline with Tween-80 97 % of control

CCCCCCCCCCCCCCCC[N+]1(CC)CCCC1
inactive: endpoint: mean survival time, dose: 25.0 mg/kg/injection, schedule: Q04DX002 (ip), vehicle: saline 96 % of control | endpoint: mean survival time, dose: 50.0 mg/kg/injection, schedule: Q04DX002 (ip), vehicle: saline 96 % of control

c1ccc([P+](Cc2ccco2)(c2ccccc2)c2ccccc2)cc1
inactive: endpoint: mean survival time, dose: 5.0 mg/kg/injection, schedule: Q01DX001 (ip), vehicle: saline 103 % of control | endpoint: mean survival time, dose: 10.0 mg/kg/injection, schedule: Q01DX001 (ip), vehicle: saline 97 % of control | endpoint: mean survival time, dose: 20.0 mg/kg/injection, schedule: Q01DX001 (ip), vehicle: saline 90 % of control | endpoint: mean survival time, dose: 40.0 mg/kg/injection, schedule: Q01DX001 (ip), vehicle: saline 89 % of control

CC1C2C=CC1C(c1c3ccc(=O)cc-3oc3cc(O)ccc13)C2C(=O)O (centres undefined)
inactive: [2] 98 % of control | [3] 104 % of control | endpoint: mean survival time, dose: 400.0 mg/kg/injection, schedule: Q01DX009 (ip), vehicle: saline with Tween-80 104 % of control

CC(=O)c1ccc(O)c(CN(C2CCCCC2)C2CCCCC2)c1O
inactive: [4] 100 % of control | [1] 93 % of control | [5] 93 % of control

Cc1c(Cl)nc(Cl)nc1Cl
inactive: endpoint: mean survival time, dose: 8.0 mg/kg/injection, schedule: Q01DX015 (ip), vehicle: carboxymethylcellulose (CMC) 104 % of control | endpoint: mean survival time, dose: 16.0 mg/kg/injection, schedule: Q01DX015 (ip), vehicle: carboxymethylcellulose (CMC) 98 % of control | endpoint: mean survival time, dose: 32.0 mg/kg/injection, schedule: Q01DX015 (ip), vehicle: carboxymethylcellulose (CMC) 96 % of control | endpoint: mean survival time, dose: 50.0 mg/kg/injection, schedule: Q01DX001 (ip), vehicle: saline 101 % of control | endpoint: mean survival time, dose: 64.0 mg/kg/injection, schedule: Q01DX015 (ip), vehicle: carboxymethylcellulose (CMC) 106 % of control | endpoint: mean survival time, dose: 75.0 mg/kg/injection, schedule: Q01DX015 (ip), vehicle: carboxymethylcellulose (CMC) 98 % of control | [4] 101 % of control | endpoint: mean survival time, dose: 150.0 mg/kg/injection, schedule: Q01DX015 (ip), vehicle: carboxymethylcellulose (CMC) 91 % of control | [1] 104 % of control | [5] 104 % of control
